What is called IC50 is the point on the concentration scale where inhibition reaches its midpoint. One may read the viability, T/C as the ratio of treated to control.

Four compounds from PubChem BioAssay AID1963840 (Molecular Pharmacology Branch, DTP, NCI, 2024) can be followed below.
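Also: spheroids exposed to compounds for seven days.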
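For viability, T/C in this document: 100% = DMSO vehicle control viability.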

The test system of one experiment is 695427-040-R-J1-PDC complex spheroid viability. Kind of experiment: Anticancer human tumor 695427-040-R-J1-PDC patient-derived colon adenocarcinoma cell line growth inhibition [POLQ]. The settings on record: curve of first compound; second compound 0.0316 µM. The method in brief: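 Growth inhibition in 3D: complex spheroids (tumor PDC, HUVEC, MSC) treated with POLQ inhibitor combinations; where Cmax unknown, highest tested concentration 10 microM, except SN-38 at 1 microM.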
Turning to `CCCS(=O)(=O)Nc1ccc(F)c(C(=O)c2c[nH]c3ncc(-c4ccc(Cl)cc4)cc23)c1F` + COC1C(OC(N)=O)C(O)C(Oc2ccc3c(O)c(NC(=O)c4ccc(O)c(CC=C(C)C)c4)c(=O)oc3c2C)OC1(C)C, the IC50 is more than 10 µM.
Turning to `CNCc1ccc(-c2[nH]c3cc(F)cc4c3c2CCNC4=O)cc1` + COC1C(OC(N)=O)C(O)C(Oc2ccc3c(O)c(NC(=O)c4ccc(O)c(CC=C(C)C)c4)c(=O)oc3c2C)OC1(C)C, the half-maximal inhibitory concentration (IC50) was more than 10 µM.
The same measure, in the same setting: then `COc1cccc(OCCCN)c1-c1cc(Nc2cnc(C#N)cn2)n[nH]1` + COC1C(OC(N)=O)C(O)C(Oc2ccc3c(O)c(NC(=O)c4ccc(O)c(CC=C(C)C)c4)c(=O)oc3c2C)OC1(C)C, with 0.386 µM.
The same measure, in the same setting: the figure for `O=C(c1cc(Cc2n[nH]c(=O)c3ccccc23)ccc1F)N1CCN(C(=O)C2CC2)CC1` + COC1C(OC(N)=O)C(O)C(Oc2ccc3c(O)c(NC(=O)c4ccc(O)c(CC=C(C)C)c4)c(=O)oc3c2C)OC1(C)C is more than 10 µM.

Still in this experiment, the particulars now being: curve of first compound; second compound 0.1 µM.
For the compound `CCCS(=O)(=O)Nc1ccc(F)c(C(=O)c2c[nH]c3ncc(-c4ccc(Cl)cc4)cc23)c1F` + COC1C(OC(N)=O)C(O)C(Oc2ccc3c(O)c(NC(=O)c4ccc(O)c(CC=C(C)C)c4)c(=O)oc3c2C)OC1(C)C, the IC50 was more than 10 µM.
With `CNCc1ccc(-c2[nH]c3cc(F)cc4c3c2CCNC4=O)cc1` + COC1C(OC(N)=O)C(O)C(Oc2ccc3c(O)c(NC(=O)c4ccc(O)c(CC=C(C)C)c4)c(=O)oc3c2C)OC1(C)C, the IC50 was more than 10 µM.
As for `COc1cccc(OCCCN)c1-c1cc(Nc2cnc(C#N)cn2)n[nH]1` + COC1C(OC(N)=O)C(O)C(Oc2ccc3c(O)c(NC(=O)c4ccc(O)c(CC=C(C)C)c4)c(=O)oc3c2C)OC1(C)C, the IC50 came to 0.535 µM.
Regarding `O=C(c1cc(Cc2n[nH]c(=O)c3ccccc23)ccc1F)N1CCN(C(=O)C2CC2)CC1` + COC1C(OC(N)=O)C(O)C(Oc2ccc3c(O)c(NC(=O)c4ccc(O)c(CC=C(C)C)c4)c(=O)oc3c2C)OC1(C)C, the concentration for half-maximal inhibition (IC50) was more than 10 µM.

Staying with this experiment, now noted: curve of first compound; second compound 0.316 µM.
For `CCCS(=O)(=O)Nc1ccc(F)c(C(=O)c2c[nH]c3ncc(-c4ccc(Cl)cc4)cc23)c1F` + COC1C(OC(N)=O)C(O)C(Oc2ccc3c(O)c(NC(=O)c4ccc(O)c(CC=C(C)C)c4)c(=O)oc3c2C)OC1(C)C, the IC50 is more than 10 µM.
On the same count and under the same terms, then `CNCc1ccc(-c2[nH]c3cc(F)cc4c3c2CCNC4=O)cc1` + COC1C(OC(N)=O)C(O)C(Oc2ccc3c(O)c(NC(=O)c4ccc(O)c(CC=C(C)C)c4)c(=O)oc3c2C)OC1(C)C, with more than 10 µM.
Still for that read-out and setting: the figure for `COc1cccc(OCCCN)c1-c1cc(Nc2cnc(C#N)cn2)n[nH]1` + COC1C(OC(N)=O)C(O)C(Oc2ccc3c(O)c(NC(=O)c4ccc(O)c(CC=C(C)C)c4)c(=O)oc3c2C)OC1(C)C is 0.46 µM; for `O=C(c1cc(Cc2n[nH]c(=O)c3ccccc23)ccc1F)N1CCN(C(=O)C2CC2)CC1` + COC1C(OC(N)=O)C(O)C(Oc2ccc3c(O)c(NC(=O)c4ccc(O)c(CC=C(C)C)c4)c(=O)oc3c2C)OC1(C)C it is more than 10 µM.

Staying with this experiment, now noted: curve of first compound; second compound 1 µM.
For the compound `CCCS(=O)(=O)Nc1ccc(F)c(C(=O)c2c[nH]c3ncc(-c4ccc(Cl)cc4)cc23)c1F` + COC1C(OC(N)=O)C(O)C(Oc2ccc3c(O)c(NC(=O)c4ccc(O)c(CC=C(C)C)c4)c(=O)oc3c2C)OC1(C)C, the IC50 was more than 10 µM.
On the same count and under the same terms, then `CNCc1ccc(-c2[nH]c3cc(F)cc4c3c2CCNC4=O)cc1` + COC1C(OC(N)=O)C(O)C(Oc2ccc3c(O)c(NC(=O)c4ccc(O)c(CC=C(C)C)c4)c(=O)oc3c2C)OC1(C)C, with more than 10 µM; and `COc1cccc(OCCCN)c1-c1cc(Nc2cnc(C#N)cn2)n[nH]1` + COC1C(OC(N)=O)C(O)C(Oc2ccc3c(O)c(NC(=O)c4ccc(O)c(CC=C(C)C)c4)c(=O)oc3c2C)OC1(C)C, with 0.391 µM.
Still for that read-out and setting: the figure for `O=C(c1cc(Cc2n[nH]c(=O)c3ccccc23)ccc1F)N1CCN(C(=O)C2CC2)CC1` + COC1C(OC(N)=O)C(O)C(Oc2ccc3c(O)c(NC(=O)c4ccc(O)c(CC=C(C)C)c4)c(=O)oc3c2C)OC1(C)C is more than 10 µM.

Still in this experiment, the particulars now being: curve of first compound; second compound 3.16 µM.
Take `CCCS(=O)(=O)Nc1ccc(F)c(C(=O)c2c[nH]c3ncc(-c4ccc(Cl)cc4)cc23)c1F` + COC1C(OC(N)=O)C(O)C(Oc2ccc3c(O)c(NC(=O)c4ccc(O)c(CC=C(C)C)c4)c(=O)oc3c2C)OC1(C)C: the IC50 was more than 10 µM.
Take `CNCc1ccc(-c2[nH]c3cc(F)cc4c3c2CCNC4=O)cc1` + COC1C(OC(N)=O)C(O)C(Oc2ccc3c(O)c(NC(=O)c4ccc(O)c(CC=C(C)C)c4)c(=O)oc3c2C)OC1(C)C: the concentration for half-maximal inhibition (IC50) is more than 10 µM.
Same read-out and setting: the figure for `COc1cccc(OCCCN)c1-c1cc(Nc2cnc(C#N)cn2)n[nH]1` + COC1C(OC(N)=O)C(O)C(Oc2ccc3c(O)c(NC(=O)c4ccc(O)c(CC=C(C)C)c4)c(=O)oc3c2C)OC1(C)C is 0.449 µM.
The same measure, in the same setting: the figure for `O=C(c1cc(Cc2n[nH]c(=O)c3ccccc23)ccc1F)N1CCN(C(=O)C2CC2)CC1` + COC1C(OC(N)=O)C(O)C(Oc2ccc3c(O)c(NC(=O)c4ccc(O)c(CC=C(C)C)c4)c(=O)oc3c2C)OC1(C)C is more than 10 µM.

The experiment is the same for the next values; noted with them: curve of first compound; second compound 10 µM.
With `CCCS(=O)(=O)Nc1ccc(F)c(C(=O)c2c[nH]c3ncc(-c4ccc(Cl)cc4)cc23)c1F` + COC1C(OC(N)=O)C(O)C(Oc2ccc3c(O)c(NC(=O)c4ccc(O)c(CC=C(C)C)c4)c(=O)oc3c2C)OC1(C)C, the IC50 was more than 10 µM.
The same measure, in the same setting: the figure for `CNCc1ccc(-c2[nH]c3cc(F)cc4c3c2CCNC4=O)cc1` + COC1C(OC(N)=O)C(O)C(Oc2ccc3c(O)c(NC(=O)c4ccc(O)c(CC=C(C)C)c4)c(=O)oc3c2C)OC1(C)C is more than 10 µM; for `COc1cccc(OCCCN)c1-c1cc(Nc2cnc(C#N)cn2)n[nH]1` + COC1C(OC(N)=O)C(O)C(Oc2ccc3c(O)c(NC(=O)c4ccc(O)c(CC=C(C)C)c4)c(=O)oc3c2C)OC1(C)C it is 0.465 µM.
Same read-out and setting: then `O=C(c1cc(Cc2n[nH]c(=O)c3ccccc23)ccc1F)N1CCN(C(=O)C2CC2)CC1` + COC1C(OC(N)=O)C(O)C(Oc2ccc3c(O)c(NC(=O)c4ccc(O)c(CC=C(C)C)c4)c(=O)oc3c2C)OC1(C)C, with more than 10 µM.

Staying with this experiment, now noted: second compound 0.0316 µM; first compound 0.00316 µM; stronger effect = lower value.
In the case of `COc1cccc(OCCCN)c1-c1cc(Nc2cnc(C#N)cn2)n[nH]1` + COC1C(OC(N)=O)C(O)C(Oc2ccc3c(O)c(NC(=O)c4ccc(O)c(CC=C(C)C)c4)c(=O)oc3c2C)OC1(C)C, the viability, T/C is 103%.

Still in this experiment, the particulars now being: second compound 0.0316 µM; first compound 0.01 µM; stronger effect = lower value.
On to `COc1cccc(OCCCN)c1-c1cc(Nc2cnc(C#N)cn2)n[nH]1` + COC1C(OC(N)=O)C(O)C(Oc2ccc3c(O)c(NC(=O)c4ccc(O)c(CC=C(C)C)c4)c(=O)oc3c2C)OC1(C)C, for which the viability, T/C is 94.2%.

The experiment is the same for the next values; noted with them: second compound 0.0316 µM; first compound 0.0316 µM; stronger effect = lower value.
Consider `CCCS(=O)(=O)Nc1ccc(F)c(C(=O)c2c[nH]c3ncc(-c4ccc(Cl)cc4)cc23)c1F` + COC1C(OC(N)=O)C(O)C(Oc2ccc3c(O)c(NC(=O)c4ccc(O)c(CC=C(C)C)c4)c(=O)oc3c2C)OC1(C)C, for which the viability, T/C was 102%.
On the same count and under the same terms, then `CNCc1ccc(-c2[nH]c3cc(F)cc4c3c2CCNC4=O)cc1` + COC1C(OC(N)=O)C(O)C(Oc2ccc3c(O)c(NC(=O)c4ccc(O)c(CC=C(C)C)c4)c(=O)oc3c2C)OC1(C)C, with 94.5%; and `COc1cccc(OCCCN)c1-c1cc(Nc2cnc(C#N)cn2)n[nH]1` + COC1C(OC(N)=O)C(O)C(Oc2ccc3c(O)c(NC(=O)c4ccc(O)c(CC=C(C)C)c4)c(=O)oc3c2C)OC1(C)C, with 81.1%; and `O=C(c1cc(Cc2n[nH]c(=O)c3ccccc23)ccc1F)N1CCN(C(=O)C2CC2)CC1` + COC1C(OC(N)=O)C(O)C(Oc2ccc3c(O)c(NC(=O)c4ccc(O)c(CC=C(C)C)c4)c(=O)oc3c2C)OC1(C)C, with 115%.

Still in this experiment, the particulars now being: second compound 0.0316 µM; first compound 0.1 µM; stronger effect = lower value.
Regarding `CCCS(=O)(=O)Nc1ccc(F)c(C(=O)c2c[nH]c3ncc(-c4ccc(Cl)cc4)cc23)c1F` + COC1C(OC(N)=O)C(O)C(Oc2ccc3c(O)c(NC(=O)c4ccc(O)c(CC=C(C)C)c4)c(=O)oc3c2C)OC1(C)C, the viability, T/C is 102%.
For `CNCc1ccc(-c2[nH]c3cc(F)cc4c3c2CCNC4=O)cc1` + COC1C(OC(N)=O)C(O)C(Oc2ccc3c(O)c(NC(=O)c4ccc(O)c(CC=C(C)C)c4)c(=O)oc3c2C)OC1(C)C, the viability, T/C is 96.1%.
For `COc1cccc(OCCCN)c1-c1cc(Nc2cnc(C#N)cn2)n[nH]1` + COC1C(OC(N)=O)C(O)C(Oc2ccc3c(O)c(NC(=O)c4ccc(O)c(CC=C(C)C)c4)c(=O)oc3c2C)OC1(C)C, the viability, T/C was 70.2%.
Same read-out and setting: the figure for `O=C(c1cc(Cc2n[nH]c(=O)c3ccccc23)ccc1F)N1CCN(C(=O)C2CC2)CC1` + COC1C(OC(N)=O)C(O)C(Oc2ccc3c(O)c(NC(=O)c4ccc(O)c(CC=C(C)C)c4)c(=O)oc3c2C)OC1(C)C is 106%.

The experiment is the same for the next values; noted with them: second compound 0.0316 µM; first compound 0.316 µM; stronger effect = lower value.
With `CCCS(=O)(=O)Nc1ccc(F)c(C(=O)c2c[nH]c3ncc(-c4ccc(Cl)cc4)cc23)c1F` + COC1C(OC(N)=O)C(O)C(Oc2ccc3c(O)c(NC(=O)c4ccc(O)c(CC=C(C)C)c4)c(=O)oc3c2C)OC1(C)C, the viability, T/C was 98.2%.
Same read-out and setting: the figure for `CNCc1ccc(-c2[nH]c3cc(F)cc4c3c2CCNC4=O)cc1` + COC1C(OC(N)=O)C(O)C(Oc2ccc3c(O)c(NC(=O)c4ccc(O)c(CC=C(C)C)c4)c(=O)oc3c2C)OC1(C)C is 108%.
Still for that read-out and setting: then `COc1cccc(OCCCN)c1-c1cc(Nc2cnc(C#N)cn2)n[nH]1` + COC1C(OC(N)=O)C(O)C(Oc2ccc3c(O)c(NC(=O)c4ccc(O)c(CC=C(C)C)c4)c(=O)oc3c2C)OC1(C)C, with 50.3%; and `O=C(c1cc(Cc2n[nH]c(=O)c3ccccc23)ccc1F)N1CCN(C(=O)C2CC2)CC1` + COC1C(OC(N)=O)C(O)C(Oc2ccc3c(O)c(NC(=O)c4ccc(O)c(CC=C(C)C)c4)c(=O)oc3c2C)OC1(C)C, with 105%.

Staying with this experiment, now noted: second compound 0.0316 µM; first compound 1 µM; stronger effect = lower value.
With `CCCS(=O)(=O)Nc1ccc(F)c(C(=O)c2c[nH]c3ncc(-c4ccc(Cl)cc4)cc23)c1F` + COC1C(OC(N)=O)C(O)C(Oc2ccc3c(O)c(NC(=O)c4ccc(O)c(CC=C(C)C)c4)c(=O)oc3c2C)OC1(C)C, the viability, T/C was 111%.
Still for that read-out and setting: the figure for `CNCc1ccc(-c2[nH]c3cc(F)cc4c3c2CCNC4=O)cc1` + COC1C(OC(N)=O)C(O)C(Oc2ccc3c(O)c(NC(=O)c4ccc(O)c(CC=C(C)C)c4)c(=O)oc3c2C)OC1(C)C is 99.7%; for `COc1cccc(OCCCN)c1-c1cc(Nc2cnc(C#N)cn2)n[nH]1` + COC1C(OC(N)=O)C(O)C(Oc2ccc3c(O)c(NC(=O)c4ccc(O)c(CC=C(C)C)c4)c(=O)oc3c2C)OC1(C)C it is 39.7%.
For the compound `O=C(c1cc(Cc2n[nH]c(=O)c3ccccc23)ccc1F)N1CCN(C(=O)C2CC2)CC1` + COC1C(OC(N)=O)C(O)C(Oc2ccc3c(O)c(NC(=O)c4ccc(O)c(CC=C(C)C)c4)c(=O)oc3c2C)OC1(C)C, the viability, T/C was 105%.
